Experimental data as given in US7928140B2, “Benzothiazole PI3 kinase modulators for cancer treatment” (Amgen Inc., priority 2007, dated 2011).
Where two headings read alike, the source gives them in different places.

How the values were obtained:
PI3K α = target: T1, PI3K α (Homo sapiens, UniProt P42336); assay: In vitro PI3 kinase enzyme assay (alpha), ATP loss, bioluminescence; assay type: biochemical; conditions: read-out: PI3Kα ATP loss IC50;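 further: purified p110α/p85 heterodimer acting on PtdIns(4,5)P2 at room temperature, remaining ATP read by luminescence, inhibition scaled between compound-free wells with and without enzyme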
T1 construct: Full length p110 subunits of PI3K α, β and δ, N-terminally labeled with polyHis tag; polyHis (N); made in house; host or cells: Sf9 insect cells (baculovirus)
T1 sequence (P42336 whole entry, species assumed): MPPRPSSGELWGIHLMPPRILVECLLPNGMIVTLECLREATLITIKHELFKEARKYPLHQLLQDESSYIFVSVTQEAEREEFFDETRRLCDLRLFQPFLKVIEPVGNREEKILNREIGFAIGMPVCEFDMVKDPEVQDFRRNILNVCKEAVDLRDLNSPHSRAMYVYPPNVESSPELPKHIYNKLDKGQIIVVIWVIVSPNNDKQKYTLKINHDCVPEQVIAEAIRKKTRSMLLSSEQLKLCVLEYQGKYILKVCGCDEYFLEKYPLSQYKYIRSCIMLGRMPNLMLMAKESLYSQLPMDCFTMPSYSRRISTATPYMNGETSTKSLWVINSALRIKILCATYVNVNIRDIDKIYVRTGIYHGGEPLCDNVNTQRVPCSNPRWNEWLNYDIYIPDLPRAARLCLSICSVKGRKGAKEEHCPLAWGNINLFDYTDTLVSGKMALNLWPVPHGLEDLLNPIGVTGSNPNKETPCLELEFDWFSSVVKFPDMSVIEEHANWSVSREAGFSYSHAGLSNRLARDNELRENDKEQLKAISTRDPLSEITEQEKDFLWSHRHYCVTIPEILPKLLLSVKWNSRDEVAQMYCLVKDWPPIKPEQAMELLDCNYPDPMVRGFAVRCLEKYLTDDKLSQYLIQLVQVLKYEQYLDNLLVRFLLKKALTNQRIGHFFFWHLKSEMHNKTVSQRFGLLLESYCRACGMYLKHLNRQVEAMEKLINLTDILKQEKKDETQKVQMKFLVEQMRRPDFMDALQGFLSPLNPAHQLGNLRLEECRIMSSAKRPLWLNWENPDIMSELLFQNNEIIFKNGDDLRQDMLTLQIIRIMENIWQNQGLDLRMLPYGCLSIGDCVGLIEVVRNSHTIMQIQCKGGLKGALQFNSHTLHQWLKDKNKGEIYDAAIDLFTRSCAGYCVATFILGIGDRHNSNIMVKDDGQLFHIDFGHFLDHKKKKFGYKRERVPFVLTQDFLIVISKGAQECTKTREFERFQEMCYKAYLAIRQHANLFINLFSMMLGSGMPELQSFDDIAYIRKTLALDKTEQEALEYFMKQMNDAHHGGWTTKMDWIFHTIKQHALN
T1 sequence (P27986 whole entry partner, species assumed): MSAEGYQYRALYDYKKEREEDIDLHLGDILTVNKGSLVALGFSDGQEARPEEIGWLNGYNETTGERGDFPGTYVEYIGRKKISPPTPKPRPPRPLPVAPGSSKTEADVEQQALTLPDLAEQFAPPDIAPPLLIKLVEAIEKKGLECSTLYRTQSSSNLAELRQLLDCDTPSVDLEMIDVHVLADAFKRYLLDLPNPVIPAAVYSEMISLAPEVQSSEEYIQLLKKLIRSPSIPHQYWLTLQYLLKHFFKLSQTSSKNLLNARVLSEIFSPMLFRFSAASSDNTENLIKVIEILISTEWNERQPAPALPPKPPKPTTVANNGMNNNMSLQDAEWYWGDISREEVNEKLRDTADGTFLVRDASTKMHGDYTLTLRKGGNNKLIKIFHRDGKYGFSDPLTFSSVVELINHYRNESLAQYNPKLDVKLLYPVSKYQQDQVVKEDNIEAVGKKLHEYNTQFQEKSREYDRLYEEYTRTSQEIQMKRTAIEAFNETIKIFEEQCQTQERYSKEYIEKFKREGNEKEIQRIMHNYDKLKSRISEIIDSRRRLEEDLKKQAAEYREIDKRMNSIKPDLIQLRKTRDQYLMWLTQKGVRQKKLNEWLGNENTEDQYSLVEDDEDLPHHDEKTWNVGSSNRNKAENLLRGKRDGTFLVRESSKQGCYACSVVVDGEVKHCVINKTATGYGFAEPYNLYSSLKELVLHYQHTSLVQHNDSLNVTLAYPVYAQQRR

PI3K β = target: T2, PI3K β (Homo sapiens, UniProt P42338); assay: In vitro PI3 kinase enzyme assay (beta), ATP loss, bioluminescence; assay type: biochemical; conditions: read-out: PI3Kβ ATP loss IC50;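 further: purified p110β/p85 heterodimer with PtdIns(4,5)P2 as acceptor, incubated at room temperature, leftover ATP read by luminescence, inhibition scaled to compound-free wells with and without enzyme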
T2 construct: Full length p110 subunits of PI3K α, β and δ, N-terminally labeled with polyHis tag; polyHis (N); made in house; host or cells: Sf9 insect cells (baculovirus)
T2 sequence (P42338 whole entry): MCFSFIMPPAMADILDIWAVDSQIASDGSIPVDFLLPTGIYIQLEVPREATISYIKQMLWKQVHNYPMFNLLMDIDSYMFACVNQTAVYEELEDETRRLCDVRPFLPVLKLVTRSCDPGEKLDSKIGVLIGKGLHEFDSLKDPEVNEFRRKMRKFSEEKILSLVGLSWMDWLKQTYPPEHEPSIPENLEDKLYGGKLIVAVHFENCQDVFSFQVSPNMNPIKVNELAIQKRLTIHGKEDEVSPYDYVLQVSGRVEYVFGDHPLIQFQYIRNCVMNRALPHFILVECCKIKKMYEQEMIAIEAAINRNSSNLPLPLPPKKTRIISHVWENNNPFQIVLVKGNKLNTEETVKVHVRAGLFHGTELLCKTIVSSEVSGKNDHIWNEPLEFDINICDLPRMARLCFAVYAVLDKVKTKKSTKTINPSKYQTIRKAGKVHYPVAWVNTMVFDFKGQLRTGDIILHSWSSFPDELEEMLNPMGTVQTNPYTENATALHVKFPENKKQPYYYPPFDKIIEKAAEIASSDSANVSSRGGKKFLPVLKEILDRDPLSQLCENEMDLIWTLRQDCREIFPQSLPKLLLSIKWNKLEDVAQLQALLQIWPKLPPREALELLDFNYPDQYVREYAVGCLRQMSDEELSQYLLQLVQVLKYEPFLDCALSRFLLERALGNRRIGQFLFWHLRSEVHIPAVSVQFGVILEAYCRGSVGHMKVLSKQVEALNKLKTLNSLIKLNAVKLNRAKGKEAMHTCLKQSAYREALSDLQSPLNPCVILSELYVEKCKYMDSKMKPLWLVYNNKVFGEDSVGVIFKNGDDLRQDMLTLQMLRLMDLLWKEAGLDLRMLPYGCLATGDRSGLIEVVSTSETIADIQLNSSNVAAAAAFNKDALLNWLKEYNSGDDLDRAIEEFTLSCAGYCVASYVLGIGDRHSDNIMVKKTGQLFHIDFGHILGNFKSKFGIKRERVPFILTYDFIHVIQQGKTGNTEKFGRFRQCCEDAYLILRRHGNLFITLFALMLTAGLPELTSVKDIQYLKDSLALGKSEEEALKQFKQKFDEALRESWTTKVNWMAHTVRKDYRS
T2 sequence (P27986 whole entry partner): as the sequence (P27986 whole entry partner, species assumed) above

[1] = test system: phosphorylation of Serine 473 in Akt, HCT 116 human colon carcinoma cells; assay: Cell-based phospho-AKT Ser473 assay (MSD sandwich immunoassay, IGF-1 stimulated)
Procedure, shortened: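 Akt Ser473 phosphorylation was measured by MSD electrochemiluminescent sandwich immunoassay in lysates of HCT116 cells (16,000 cells/well). Cells received a compound dilution series for 2 h at 37 °C before a 15 min IGF-1 (100 ng/ml) stimulus, with IC50 calculated from the dose-response.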

[2] = Homo sapiens, HCT-116, HCT 116 cells, read-out: HCT 116 pAKT IC50

SMILES	IC50 (PI3K α)	IC50 (PI3K β)	IC50 [1, 2]	IC50 ([1]; Homo sapiens, HCT-116, read-out: HCT 116 pAKT IC50)	IC50 ([1]; HCT 116 cells, read-out: HCT 116 pAKT IC50)
Nc1nc2ccc(-c3cnc(Cl)c(NS(=O)(=O)c4ccccc4C(F)(F)F)c3)cc2s1 [Example 314, N-(5-(2-amino-1,3-benzothiazol-6-yl)-2-chloro-3-pyridinyl)-2-(trifluoromethyl)benzenesulfonamide]	2.5 nM	12.7 nM	205 nM	–	–
CN(C)c1cc(-c2ccc3nc(NC(=O)Oc4ccccc4)sc3c2)cnc1Cl [Example 270, Phenyl 6-(6-chloro-5-(dimethylamino)pyridin-3-yl)benzo[d]thiazol-2-ylcarbamate]	34.6 nM	2460 nM	–	> 5000 nM	–
CC(=O)Nc1nc2ccc(-c3cncc(NS(=O)(=O)c4ccc(C(C)(C)C)cc4)c3)cc2s1 [Example 201, N-(6-(5-(4-tert-butylphenylsulfonamido)pyridin-3-yl)benzo[d]thiazol-2-yl)acetamide]	6.5 nM	11.1 nM	117 nM	–	–
COc1ncc(-c2ccc3nc(NC(C)=O)sc3c2)cc1N(C)C [Example 124, N-(6-(5-(dimethylamino)-6-methoxy-3-pyridinyl)-1,3-benzothiazol-2-yl)acetamide]	24.7 nM	90.8 nM	66.6 nM	–	–
CC(=O)Nc1nc2ccc(-c3cnc(C)c(NS(=O)(=O)c4cccc(OC(F)F)c4)c3)cc2s1 [Example 115, N-(6-(5-(((3-(difluoromethoxy)phenyl)sulfonyl)amino)-6-methyl-3-pyridinyl)-1,3-benzothiazol-2-yl)acetamide]	7.1 nM	15 nM	30.7 nM	–	–
CC(=O)Nc1nc2ccc(-c3cnc(C)c(NS(=O)(=O)c4ccc(F)cc4)c3)cc2s1 [Example 111, N-(6-(5-(((4-fluorophenyl)sulfonyl)amino)-6-methyl-3-pyridinyl)-1,3-benzothiazol-2-yl)acetamide]	4.1 nM	13.1 nM	25.5 nM	–	–
CC(=O)Nc1nc2ccc(-c3cnc(Cl)c(NS(=O)(=O)C(C)C)c3)cc2s1 [Example 179, N-(6-(6-chloro-5-(propan-2-ylsulfonamido)pyridin-3-yl)benzo[d]thiazol-2-yl)acetamide]	12.7 nM	30.7 nM	29.4 nM	–	–
CC(=O)Nc1nc2ccc(-c3cncc(NS(=O)(=O)c4ccc(Cl)c(Cl)c4)c3)cc2s1 [Example 200, N-(6-(5-(3,4-dichlorophenylsulfonamido)pyridin-3-yl)benzo[d]thiazol-2-yl)acetamide]	5.6 nM	9.8 nM	35.7 nM	–	–
CC(=O)Nc1nc2ccc(-c3ccnc(NCc4ccccc4)n3)cc2s1 [Example 49, N-(6-(2-(benzylamino)-4-pyrimidinyl)-1,3-benzothiazol-2-yl)acetamide]	418 nM	1450 nM	15300 nM	–	–
CC(=O)Nc1nc2ccc(-c3cnc(Cl)c(O)c3)cc2s1 [Example 301, N-(6-(6-chloro-5-hydroxypyridin-3-yl)benzo[d]thiazol-2-yl)acetamide]	5 nM	94.1 nM	100 nM	–	–
COc1ccncc1-c1ccc2nc(NC(C)=O)sc2c1 [Example 241, N-(6-(4-methoxypyridin-3-yl)benzo[d]thiazol-2-yl)acetamide]	73.5 nM	10700 nM	816 nM	–	–
COc1cc(-c2ccc3nc(NC(C)=O)sc3c2)cnc1Cl [Example 240, N-(6-(6-chloro-5-methoxypyridin-3-yl)benzo[d]thiazol-2-yl)acetamide]	155 nM	1280 nM	643 nM	–	–
CC(=O)Nc1nc2ccc(-c3ccnc(NC4CCOCC4)n3)cc2s1 [Example 261, N-(6-(2-(tetrahydro-2H-pyran-4-ylamino)pyrimidin-4-yl)benzo[d]thiazol-2-yl)acetamide]	900 nM	13100 nM	1700 nM	–	–
CNC(=O)Nc1nc2ccc(-c3ccnc(OCc4ccccc4)n3)cc2s1 [Example 56, 1-(6-(2-(benzyloxy)-4-pyrimidinyl)-1,3-benzothiazol-2-yl)-3-methylurea]	254 nM	402 nM	> 5000 nM	–	–
CC(=O)Nc1nc2c(F)cc(-c3cccc(S(=O)(=O)c4ccccc4F)n3)cc2s1 [Example 137, N-(4-fluoro-6-(6-((2-fluorophenyl)sulfonyl)-2-pyridinyl)-1,3-benzothiazol-2-yl)acetamide]	65 nM	1140 nM	901 nM	–	–
CC(=O)Nc1nc2ccc(-c3ccnc(OCCCc4ccccc4)n3)cc2s1 [Example 4, N-(6-(2-(3-phenylpropoxy)-4-pyrimidinyl)-1,3-benzothiazol-2-yl)acetamide]	151 nM	386 nM	2370 nM	–	–

SMILES	IC50 (PI3K α)	IC50 (PI3K β)	IC50 [1, 2]	IC50 ([1]; Homo sapiens, HCT-116, read-out: HCT 116 pAKT IC50)	IC50 ([1]; HCT 116 cells, read-out: HCT 116 pAKT IC50)
CC(=O)Oc1cc(-c2ccc3ncsc3c2)cnc1Cl [Example 335, 5-(1,3-benzothiazol-6-yl)-2-chloro-3-pyridinyl acetate]	15.6 nM	113 nM	44 nM	–	–
COc1cccc(COc2nccc(-c3ccc4nc(NC(C)=O)sc4c3)n2)c1 [Example 108, N-(6-(2-((3-methoxybenzyl)oxy)-4-pyrimidinyl)-1,3-benzothiazol-2-yl)acetamide]	96.7 nM	292 nM	682 nM	–	–
CC(=O)Nc1nc2ccc(-c3cncc(N(C)S(=O)(=O)c4ccc(C)cc4)n3)cc2s1 [Example 127, N-(6-(6-(methyl((4-methylphenyl)sulfonyl)amino)-2-pyrazinyl)-1,3-benzothiazol-2-yl)acetamide]	27.8 nM	31.6 nM	58.1 nM	–	–
CC(=O)Nc1nc2ccc(-c3cnc(Cl)c(NS(=O)(=O)c4ccc(C(C)O)cc4)c3)cc2s1 (single isomer, unassigned) [Example 258]	7.6 nM	11.4 nM	–	–	48.8 nM
CC(=O)Nc1nc2ccc(-c3ccnc(NS(=O)(=O)c4ccc(C)cc4)c3)cc2s1 [Example 216, N-(6-(2-(4-methylphenylsulfonamido)pyridin-4-yl)benzo[d]thiazol-2-yl)acetamide]	35.1 nM	120 nM	79.4 nM	–	–
CCCS(=O)(=O)Nc1cc(-c2ccc3nc(NC(C)=O)sc3c2)cnc1Cl [Example 177, N-(6-(6-chloro-5-(propylsulfonamido)pyridin-3-yl)benzo[d]thiazol-2-yl)acetamide]	15.4 nM	34.9 nM	36.3 nM	–	–
CN(C)c1cc(-c2ccc3nc(N)sc3c2)cnc1Cl [Example 274, 6-(6-Chloro-5-(dimethylamino)pyridin-3-yl)benzo[d]thiazol-2-amine]	191 nM	613 nM	985 nM	–	–
O=S(=O)(Nc1cc(-c2ccc3ncoc3c2)cnc1Cl)c1ccc(F)cc1 [Example 326, N-(5-(1,3-benzoxazol-6-yl)-2-chloro-3-pyridinyl)-4-fluorobenzenesulfonamide]	22.3 nM	34.5 nM	> 5000 nM	–	–
CC(=O)Nc1nc2ccc(-c3cnc(Cl)c(NS(=O)(=O)c4ccc(O)cc4)c3)cc2s1 [Example 174, N-(6-(6-chloro-5-(4-hydroxyphenylsulfonamido)pyridin-3-yl)benzo[d]thiazol-2-yl)acetamide]	7.2 nM	12.3 nM	15.5 nM	–	–
CC(=O)Nc1nc2ccc(-c3cncc(N(C)S(=O)(=O)c4ccc(F)c(F)c4)c3)cc2s1 [Example 222, N-(6-(5-(3,4-difluoro-N-methylphenylsulfonamido)pyridin-3-yl)benzo[d]thiazol-2-yl)acetamide]	377 nM	2890 nM	2180 nM	–	–
CC(=O)Nc1nc2ccc(-c3cnc(Cl)c(NS(=O)(=O)c4ccc(C)cc4)c3)cc2s1 [Example 189, N-(6-(6-chloro-5-(4-methylphenylsulfonamido)pyridin-3-yl)benzo[d]thiazol-2-yl)acetamide]	6.4 nM	7.7 nM	3.9 nM	–	–
CC(=O)Nc1nc2ccc(-c3cncc(NS(=O)(=O)c4ccc(C(C)O)cc4)c3)cc2s1 (stereo not drawn) [Example 259, N-(6-(5-(4-(1-hydroxyethyl)phenylsulfonamido)pyridin-3-yl)benzo[d]thiazol-2-yl)acetamide]	12.1 nM	32.2 nM	388 nM	–	–
CC(C)Nc1cc(-c2ccc3nc(N)sc3c2)cnc1Cl [Example 155, 6-(6-chloro-5-((1-methylethyl)amino)-3-pyridinyl)-1,3-benzothiazol-2-amine]	509 nM	1150 nM	1990 nM	–	–
CC(=O)Nc1nc2ccc(-c3cnc(Cl)c(NS(=O)(=O)N4CCCCC4)c3)cc2s1 [Example 316, N-(6-(6-chloro-5-((1-piperidinylsulfonyl)amino)-3-pyridinyl)-1,3-benzothiazol-2-yl)acetamide]	10.3 nM	35.8 nM	7 nM	–	–
COc1ccc(S(=O)(=O)N(C)c2nccc(-c3ccc4nc(NC(C)=O)sc4c3)n2)cc1 [Example 88, N-(6-(2-(4-Methoxy-N-methylphenylsulfonamido)pyrimidin-4-yl)benzo[d]thiazol-2-yl)acetamide]	39.3 nM	79.1 nM	68.8 nM	–	–
Cc1cc(F)ccc1S(=O)(=O)Nc1cc(-c2ccc3nc(N)sc3c2)cnc1Cl [Example 312, N-(5-(2-amino-1,3-benzothiazol-6-yl)-2-chloro-3-pyridinyl)-4-fluoro-2-methylbenzenesulfonamide]	6 nM	24.9 nM	348 nM	–	–
